Where two headings read alike, the source gives them in different places.
Tests used:
mANO1 [1] = test: FLIPR membrane potential (voltage-sensing fluorescence) assay in mANO1-stably expressing HEK cells; assay type: cell-based, mouse; details: for membrane potential change detected by fluorescent intensity: 100 μM ATP or 10 μM A23187, mANO1-stably expressing HEK cells, not seen in control HEK cells
Protocol: The activity of the ANO1-stable cell line was characterized with a FLIPR® Membrane Potential assay kit (Molecular devices, Sunnyvale, Calif.) according to the manufacture's instructions. ANO1-stable cell lines were seeded into poly-D-lysine coated 96-well plates (50,000 cells/each well). One day after the plating, the cells were incubated with 50 μl Hank's balanced salt solution (HBSS) containing membrane potential dye for 40 min at 37° C. To test the activity of ANO1 stable cell line, 100·μM ATP or 10·μM A23187 (Sigma, St Louis, Mo., USA) was added to each well for 20 sec after starting detection. The fluorescence intensity was measured by a fluorometric imaging plate reader (FlexStation™ II, MolecularDevices). Membrane potential dye was excited at 530 nm, and the intensity of fluorescence emitted at 565 nm was measured.
To determine if ANO1 is applicable for high-throughput screening (HTS) analysis, we constructed a stable cell line that constitutively expresses mANO1 (Reference example 7). The mANO1 stable cell line was grown in wells of a 96-well plate. mANO1-stably expressing HEK cells were incubated with a voltage sensor fluorescent dye (FLIPR®-membrane potential assay kit, Molecular Device) to detect change in membrane potential when ANO1 is activated. When ANO1 is activated, Cl^− would flux out the cell to depolarize the membrane, which makes the fluorescence dye fluoresce. After wash out the fluorescent dye, 100 μM ATP was applied. […] Fluorescent intensity was detected at excitation 530 nm and emission 565 nm by FlexStation 2 (Molecular device). […] F/F0: ratio of fluorescence intensity. Pretreatment of 2APB, a known blocker of IP3 receptor, blocked the ATP induced-membrane potential change in ANO1-stably expressing HEK cells (FIG. 13C).

mANO1 [2] = target: T1, mANO1 (Mus musculus, UniProt Q8BHY3, S527P); test: Ca2+ activation of macroscopic currents in inside-out patches from ANO1/ETAR-HEK cells; assay type: biochemical; design: expressed in transfected cells; details: for EC50: inside-out patches
T1 sequence (Q8BHY3 1-960 S527P): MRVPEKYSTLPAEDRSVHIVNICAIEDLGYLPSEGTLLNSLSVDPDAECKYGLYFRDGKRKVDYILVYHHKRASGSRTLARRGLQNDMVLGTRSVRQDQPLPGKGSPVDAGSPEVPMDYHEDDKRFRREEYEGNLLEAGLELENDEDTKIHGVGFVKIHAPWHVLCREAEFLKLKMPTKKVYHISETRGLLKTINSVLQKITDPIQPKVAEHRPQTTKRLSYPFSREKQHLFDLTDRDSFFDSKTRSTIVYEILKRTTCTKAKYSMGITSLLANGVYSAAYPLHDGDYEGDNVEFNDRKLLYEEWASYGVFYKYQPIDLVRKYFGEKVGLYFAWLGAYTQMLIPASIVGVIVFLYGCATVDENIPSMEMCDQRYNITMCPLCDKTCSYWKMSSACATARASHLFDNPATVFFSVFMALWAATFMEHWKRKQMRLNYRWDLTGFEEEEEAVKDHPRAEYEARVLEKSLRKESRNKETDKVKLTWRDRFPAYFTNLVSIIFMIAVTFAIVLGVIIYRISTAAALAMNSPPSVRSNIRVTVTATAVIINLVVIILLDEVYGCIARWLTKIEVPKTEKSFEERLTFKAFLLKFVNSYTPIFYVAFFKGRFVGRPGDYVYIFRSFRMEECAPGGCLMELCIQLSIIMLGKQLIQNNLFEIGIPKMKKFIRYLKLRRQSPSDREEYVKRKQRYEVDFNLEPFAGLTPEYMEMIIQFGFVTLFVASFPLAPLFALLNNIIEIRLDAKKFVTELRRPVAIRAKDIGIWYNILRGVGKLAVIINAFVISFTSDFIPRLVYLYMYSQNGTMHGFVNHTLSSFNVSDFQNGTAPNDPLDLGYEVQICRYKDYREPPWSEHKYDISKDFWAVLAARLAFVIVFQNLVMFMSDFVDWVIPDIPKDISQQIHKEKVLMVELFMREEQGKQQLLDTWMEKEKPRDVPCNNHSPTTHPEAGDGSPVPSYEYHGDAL
Protocol: A. Macroscopic current responses to repeated applications of Ca^2+ in various concentrations to the bath of inside-out patches isolated from mANO1-ETAR/HEK cells at holding potentials of −60 or +60 mV. Pipette and bath solution contained 140 mM NMDG-Cl.
B. Dose-response relationship of mANO1 activation by Ca^2+. Current responses were normalized versus those observed at 10 μM (−60 mV, n=8) or 3 μM Ca^2+ (+60 mV, n=8). Data points were fitted to the Hill's equation. (Error bars=Mean±S.E.M)
(§1) To form gigaseals, individual cell surfaces were touched with a ˜3 Mohm Sylgard-coated glass pipette with gentle suction, and the junction potential was then adjusted to 0 mV. The membrane in contact with the pipette was then ruptured by suction to form a whole cell. The pipette solution contained 140 mM NMDG-Cl, 2 mM MgCl2, 10 mM HEPES, 2 mM ATP, and 0.3 mM GTP adjusted to pH 7.2, and the bath solution contained 140 mM NMDG-Cl, 2 mM MgCl2 and 10 mM HEPES (pH 7.2). For ion selectivity experiments, 140 mM NMDG-Cl was replaced with equimolar NaCl, NaL NaBr, NaNO3, NaF, or Na-gluconate in the bath solution. To determine current-voltage relationships, voltage ramps from −80 or −100 mV to +80 or +100 mV were delivered for 350 ms, or voltage-pulses from −100 mV to +100 mV were delivered for 400 ms to whole cells. When mANO1 was activated by 300 nM intracellular Ca^2+, voltage-pulses of 2500 ms were delivered. Whole-cell currents were amplified using an Axopatch 200B amplifier (Molecular Device, Sunnyvale, Calif.) and stored in a personal computer after digitization by a Digidata 1440 (Molecular Device). For single-channel current recordings, cell-attached or inside-out patches were formed from gigaseals. The pipette and control bath solution contained 140 mM NMDG-Cl, 2 mM MgCl2 and 10 mM HEPES (pH 7.2). […] To create amplitude histograms, pClamp software (version 6.0, Molecular Device) was used to analyze open and closed single-channel current events. The half-amplitude algorithm was used to determine an open event. The minimum duration of an open event was set at 0.1 ms.
Ca^2+ in various concentrations applied to the bath (intracellular side) evoked macroscopic […] currents in a dose-dependent manner (Ehold=−60 mV) (FIG. 7A). […] The threshold concentration of Ca^2+ reached about 0.3 μM at −60 mV holding potential (FIG. 7B). Remarkably, ANO1 activation by Ca^2+ was voltage-dependent, which is also characteristic of endogenous CaCCs (Nilius, B. et al., Cell Calcium 22, 53-63 (1997), Kuruma, A. & Hartzell, H. C., J Gen Physiol 115, 59-80 (2000), Evans, M. G. & Marty, A., J Physiol 378, 437-60 (1986)). At a depolarized membrane potential (+60 mV), ANO1 was more sensitive to Ca^2+ and the concentration-response curve shifted to the left, resulting in an EC50 of 0.4 μM (FIG. 7B). Hill's coefficients of the concentration-response curves were 2.0 and 2.4 at −60 and +60 mV, respectively.

mANO1 [3] = test: Whole-cell current response to GPCR stimulation in HEK 293T cells co-transfected with mANO1 and a GPCR; assay type: cell-based, mouse
Protocol: HEK 293T cells were transfected with pEGFP-N1 (control) (1.0 μg) or pEGFP-N-1-mANO1 (0.8˜1.0 μg) and/or any one of the GPCR cDNAs (1.0 μg) obtained in Reference Example 2, using a FuGENE® HD transfection reagent (Roche Diagnostics, Penzberg, Germany). Transfected cells were maintained in DMEM supplemented with heat inactivated 10% fetal bovine serum (GIBCO BRL, Rockville, Md.) and penicillin-streptomycin at 37 in a 5% CO2 humidified atmosphere. One or two days after transfection, transfected cells were used for biochemical and electrophysiological experiments.
as §1
Under physiological conditions CaCCs are known to be activated by GPCR stimulation. Endothelin-1 is a powerful vasoconstrictor that depolarizes vascular smooth muscle by activating CaCCs (Klockner, U. & Isenberg, G., Pflugers Arch. 418, 168-75 (1991); and Salter, K. J. & Kozlowski, R. Z., J Pharmacol Exp Ther. 279, 1053-62 (1996)). Thus, mANO1 and endothelin receptor subtype A (ETAR) were transfected into HEK 293T cells, along with GFP for visual identification of transfected cells, in accordance with the method of Reference Example 5. Whole cells were used to test the current response of mANO1 to ETAR stimulation. Pipette and bath solutions contained 140 mM N-methyl D-glucamine (NMDG)-Cl, which permitted Cl^− to be used as the main charge carrier. The pipette solution was Ca^2+ free and contained no EGTA. […] In contrast, endothelin-1 evoked currents were minimal in HEK cells transfected with ETAR or control (GFP-transfected only) cells. When mANO1 was transfected alone, 50 nM endothelin-1 evoked appreciable currents; presumably because of the presence of endogenous endothelin receptors in HEK cells.

hANO1 = test: Current recording in hANO1/ETAR-HEK cells; assay type: cell-based, human; details: 50 nM endothelin-1
Source text: The hANO1 (human TMEM16A; NM_018043, GI: 40354209) was cloned from human trachea total RNAs (Clontech, Palo Alto, Calif.) by PCR method using following primers; forward primer 5′-CTCGAGGCCACCATGAGGGTCAACGAGAAGTACTC-3′ (SEQ ID NO: 8) and reverse primer 5′-GGTACCCTACAGGACGCCCCCGTGGTAG-3′ (SEQ ID NO: 9). The PCR product was cut with XhoI and KpnI, and then inserted into XhoI/KpnI site of pSDTF or pEGFP-N1.
To form gigaseals, individual cell surfaces were touched with a ˜3 Mohm Sylgard-coated glass pipette with gentle suction, and the junction potential was then adjusted to 0 mV. The membrane in contact with the pipette was then ruptured by suction to form a whole cell. The pipette solution contained 140 mM NMDG-Cl, 2 mM MgCl2, 10 mM HEPES, 2 mM ATP, and 0.3 mM GTP adjusted to pH 7.2, and the bath solution contained 140 mM NMDG-Cl, 2 mM MgCl2 and 10 mM HEPES (pH 7.2). For ion selectivity experiments, 140 mM NMDG-Cl was replaced with equimolar NaCl, NaL NaBr, NaNO3, NaF, or Na-gluconate in the bath solution. To determine current-voltage relationships, voltage ramps from −80 or −100 mV to +80 or +100 mV were delivered for 350 ms, or voltage-pulses from −100 mV to +100 mV were delivered for 400 ms to whole cells. When mANO1 was activated by 300 nM intracellular Ca^2+, voltage-pulses of 2500 ms were delivered. […]

CNc1ccc2oc(C[C@H]3O[C@@]4(CC[C@H]3C)O[C@H]([C@H](C)C(=O)c3ccc[nH]3)[C@H](C)C[C@H]4C)nc2c1C(=O)O [A23187]
membrane potential change detected by fluorescent intensity (mANO1 [1]): evoked membrane potential change

[Ca+2] [Ca^2+]
Hill's coefficient of concentration-response curve (mANO1 [2]; +60 mV): 2.4
EC50 (mANO1 [2]; depolarized membrane potential +60 mV, read-out: EC50 for ANO1 activation): 400 nM
EC50 (mANO1 [2]; holding potential −60 mV, read-out: half-maximal concentration (EC50) for ANO1 activation): 2600 nM
Hill's coefficient of concentration-response curve (mANO1 [2]; −60 mV): 2.0
threshold concentration for ANO1 activation (mANO1 [2]; −60 mV holding potential): about 0.3 μM

Nc1ncnc2c1ncn2[C@@H]1O[C@H](COP(=O)(O)OP(=O)(O)OP(=O)(O)O)[C@@H](O)[C@H]1O [ATP]
inward currents activated by ATP (mANO1 [3]; ATP 100 μM, mANO1 co-transfected with P2Y2R in HEK 293T cells, Ehold −60 mV): Large inward currents
membrane potential change detected by fluorescent intensity (mANO1 [1]): evoked robust change in membrane potentials

endothelin-1 (CSCSSLMDKECVYFCHLDIIW) [powerful vasoconstrictor; ligand of endothelin receptor subtype A (ETAR)]
endothelin-1 evoked inward currents (mANO1 [3]; 50 nM endothelin-1, mANO1-ETAR/HEK cells, whole cell, membrane potential −60 mV): evoked robust inward currents
second responses relative to first responses (tachyphylaxis) (mANO1 [3]; 50 nM endothelin-1 applied twice with a 5 min interval, ANO1/ETAR-HEK cells, n=12, no blocker): 87.1±11.4%
endothelin-1 evoked Cl− currents (hANO1): evoked large Cl^− currents

NCCOB(c1ccccc1)c1ccccc1 [2APB]
block of ATP induced-membrane potential change (mANO1 [1]; pretreatment of 2APB, ANO1-stably expressing HEK cells): blocked

Source: patent US20100209934A1, “METHOD OF IDENTIFYING AGENTS WHICH MODULATE THE ACTIVITY OF CALCIUM-ACTIVATED CHLORIDE CHANNEL” (SNU R&DB FOUNDATION, priority 2007, published 2010)
